Experimental data reported in US4257941A, “Polycyclic nitrogen-containing compounds” (BASF Aktiengesellschaft, priority 1976, dated 1981).
Where two headings read alike, the source gives them in different places.

Assays:
Assay type in all cases: in vivo
Eleusine indica = test: Herbicidal action (Example 25); details: postemergence
Description: (§1) Paraffined paper cups having a volume of 170 cm^3 were filled with a sandy loam, and the seeds of the test plants sown therein, separated by species. (The species are also listed below.)
(§2) In the first group, treatment was effected immediately after sowing and before germination of the seeds (preemergence treatment=soil treatment). Shallow sown seeds not completely covered with soil came into contact with the active ingredients. In the second group, the plants were treated postemergence (=leaf treatment) at a growth height of from 2 to 8 cm, depending on the rate of growth and shape of the species concerned. The compounds were suspended or emulsified in water and applied with the aid of fine nozzles. The soil and plants were thoroughly sprinkler irrigated for the duration of the experiment. The cups were placed in the greenhouse and kept in the temperature range 12°-25° C. or 18°-35° C., depending on the temperature requirements of the various species. After 2 to 6 weeks the action was assessed visually on a 0 to 100 scale, 0 denoting no damage and 100 denoting plants not germinated or completely destroyed.

Digitaria sanguinalis = test: Herbicidal action (Example 25); details: postemergence
Description: as §1, §2

Datura stramonium = test: Herbicidal action (Example 25); details: postemergence
Description: as §1, §2

Alopecurus myosuroides = test: Herbicidal action (Example 25); details: for pest or weed control at 2000 g/ha / pest or weed control at 4000 g/ha / pest or weed control at 8000 g/ha / pest or weed control at 1000 g/ha: Alopecurus myosuroides, read-out: percentage damage; for pest or weed control at 2000 g/ha: 2.0 kg/ha; for pest or weed control at 8000 g/ha: 8.0 kg/ha; for pest or weed control at 1000 g/ha: 1.0 kg/ha
Description: as §1, §2

tomatoes = test: Action on tomatoes (Example 22); details: leaf; for Plant height: 14 days; for Plant height relative: control 100
Description: Tomatoes were grown in the greenhouse in glass dishes 11.5 cm in diameter containing a peat substrate which was provided with an adequate supply of nutrients. The active ingredients were sprayed onto the leaves in conventional manner at a plant height of 9 to 12 cm.

Galium aparine = test: Herbicidal action (Example 25); details: post-emergence, postemergence, 4.0 kg/ha, read-out: percentage damage
Description: as §1, §2

Sinapis alba = test: Herbicidal action (Example 25); details: read-out: percentage damage; for pest or weed control at 1000 g/ha: 1.0 kg/ha; for pest or weed control at 2000 g/ha: 2.0 kg/ha
Description: as §1, §2

Echinochloa crus galli = test: Herbicidal action (Example 25)
Description: as §1, §2

[1] = post-emergence, postemergence, 4.0 kg/ha
[2] = pre-emergence, preemergence, 4.0 kg/ha

What does the source list for c1csc(N2N=NC3C4CC(C5N=NC45)C32)n1 (stereo not shown) [drawing 430]?
percentage damage (Eleusine indica; 2.0 kg/ha): 60 percentage damage; percentage damage (Eleusine indica; 4.0 kg/ha): 60 percentage damage; percentage damage (Eleusine indica; 8.0 kg/ha): 70 percentage damage; percentage damage (Digitaria sanguinalis; 2.0 kg/ha): 60 percentage damage; percentage damage (Digitaria sanguinalis; 4.0 kg/ha): 60 percentage damage; percentage damage (Digitaria sanguinalis; 8.0 kg/ha): 80 percentage damage; percentage damage (Datura stramonium; 2.0 kg/ha): 50 percentage damage; percentage damage (Datura stramonium; 4.0 kg/ha): 60 percentage damage; percentage damage (Datura stramonium; 8.0 kg/ha): 65 percentage damage; pest or weed control at 2000 g/ha (Alopecurus myosuroides; post-emergence, postemergence): 32%; pest or weed control at 4000 g/ha (Alopecurus myosuroides; [1]): 40%; pest or weed control at 8000 g/ha (Alopecurus myosuroides; post-emergence, postemergence): 50%; pest or weed control at 2000 g/ha (Alopecurus myosuroides; pre-emergence, preemergence): 70%; pest or weed control at 4000 g/ha (Alopecurus myosuroides; [2]): 88%; pest or weed control at 8000 g/ha (Alopecurus myosuroides; pre-emergence, preemergence): 100%

C=CCN(CC=C)C(=O)CCl [drawing 425] was tested. Which percentage damage (Datura stramonium; 2.0 kg/ha) did it give?
Its percentage damage is 10 percentage damage.

What about the percentage damage (Datura stramonium; 4.0 kg/ha) of the same compound?
Its percentage damage is 20 percentage damage.

What about the percentage damage (Datura stramonium; 8.0 kg/ha) of the same compound?
The percentage damage was 60 percentage damage.

And the pest or weed control at 2000 g/ha (Alopecurus myosuroides; post-emergence, postemergence)?
Its pest or weed control at 2000 g/ha is 28%.

And the pest or weed control at 4000 g/ha (Alopecurus myosuroides; [1])?
Its pest or weed control at 4000 g/ha is 38%.

What about the pest or weed control at 8000 g/ha (Alopecurus myosuroides; post-emergence, postemergence) of the same compound?
Its pest or weed control at 8000 g/ha is 35%.

And the pest or weed control at 2000 g/ha (Alopecurus myosuroides; pre-emergence, preemergence)?
The pest or weed control at 2000 g/ha was 68%.

What about the pest or weed control at 4000 g/ha (Alopecurus myosuroides; [2]) of the same compound?
The pest or weed control at 4000 g/ha was 85%.

What about the pest or weed control at 8000 g/ha (Alopecurus myosuroides; pre-emergence, preemergence) of the same compound?
The pest or weed control at 8000 g/ha was 98%.

How did the Plant height (tomatoes; 1.5 kg/ha) turn out when Clc1ccc(N2N=NC3C4CC(C5N=NC45)C32)cc1 (stereo not shown) [drawing 402] was run?
The Plant height was 24.3 cm.

And the Plant height relative (tomatoes; 1.5 kg/ha)?
Its Plant height relative is 89.3.

And the Plant height (tomatoes; 3.0 kg/ha)?
The Plant height was 20.3 cm.

What about the Plant height relative (tomatoes; 3.0 kg/ha) of the same compound?
Its Plant height relative is 74.6.

And the Plant height (tomatoes; 6.0 kg/ha)?
Its Plant height is 14.0 cm.

What about the Plant height relative (tomatoes; 6.0 kg/ha) of the same compound?
The Plant height relative was 51.5.

Which percentage damage (Eleusine indica; 2.0 kg/ha) does the source give for c1ccc(N2N=NC3C4CC(C5N=NC45)C32)cc1 (stereo not shown) [drawing 429] here?
The percentage damage was 90 percentage damage.

What about the percentage damage (Eleusine indica; 4.0 kg/ha) of the same compound?
The percentage damage was 90 percentage damage.

And the percentage damage (Eleusine indica; 8.0 kg/ha)?
The percentage damage was 90 percentage damage.

And the percentage damage (Digitaria sanguinalis; 2.0 kg/ha)?
The percentage damage was 60 percentage damage.

What about the percentage damage (Digitaria sanguinalis; 4.0 kg/ha) of the same compound?
Its percentage damage is 70 percentage damage.

What about the percentage damage (Digitaria sanguinalis; 8.0 kg/ha) of the same compound?
The percentage damage was 80 percentage damage.

What about the percentage damage (Datura stramonium; 2.0 kg/ha) of the same compound?
The percentage damage was 60 percentage damage.

And the percentage damage (Datura stramonium; 4.0 kg/ha)?
Its percentage damage is 95 percentage damage.

What about the percentage damage (Datura stramonium; 8.0 kg/ha) of the same compound?
The percentage damage was 100 percentage damage.

What about the pest or weed control at 2000 g/ha (Alopecurus myosuroides; post-emergence, postemergence) of the same compound?
Its pest or weed control at 2000 g/ha is 15%.

And the pest or weed control at 4000 g/ha (Alopecurus myosuroides; [1])?
Its pest or weed control at 4000 g/ha is 38%.

What about the pest or weed control at 8000 g/ha (Alopecurus myosuroides; post-emergence, postemergence) of the same compound?
The pest or weed control at 8000 g/ha was 45%.

What about the pest or weed control at 2000 g/ha (Alopecurus myosuroides; pre-emergence, preemergence) of the same compound?
Its pest or weed control at 2000 g/ha is 70%.

And the pest or weed control at 8000 g/ha (Alopecurus myosuroides; pre-emergence, preemergence)?
The pest or weed control at 8000 g/ha was 90%.

What about the percentage damage (Alopecurus myosuroides; preemergence, 4.0 kg/ha) of the same compound?
The percentage damage was 75 percentage damage.

Which percentage damage (Eleusine indica; 2.0 kg/ha) does the source give for CN(C)C(=O)Nc1ccc(Oc2ccccc2)cc1 [drawing 424] here?
Its percentage damage is 40 percentage damage.

And the percentage damage (Eleusine indica; 4.0 kg/ha)?
Its percentage damage is 50 percentage damage.

And the percentage damage (Eleusine indica; 8.0 kg/ha)?
Its percentage damage is 50 percentage damage.

What about the percentage damage (Digitaria sanguinalis; 2.0 kg/ha) of the same compound?
The percentage damage was 50 percentage damage.

What about the percentage damage (Digitaria sanguinalis; 4.0 kg/ha) of the same compound?
Its percentage damage is 70 percentage damage.

And the percentage damage (Digitaria sanguinalis; 8.0 kg/ha)?
The percentage damage was 90 percentage damage.

And the percentage damage (Datura stramonium; 2.0 kg/ha)?
Its percentage damage is 95 percentage damage.

And the percentage damage (Datura stramonium; 4.0 kg/ha)?
The percentage damage was 95 percentage damage.

And the percentage damage (Datura stramonium; 8.0 kg/ha)?
The percentage damage was 100 percentage damage.

And the pest or weed control at 2000 g/ha (Alopecurus myosuroides; post-emergence, postemergence)?
The pest or weed control at 2000 g/ha was 15%.

And the pest or weed control at 4000 g/ha (Alopecurus myosuroides; [1])?
Its pest or weed control at 4000 g/ha is 22%.

What about the pest or weed control at 8000 g/ha (Alopecurus myosuroides; post-emergence, postemergence) of the same compound?
Its pest or weed control at 8000 g/ha is 38%.

And the pest or weed control at 2000 g/ha (Alopecurus myosuroides; pre-emergence, preemergence)?
The pest or weed control at 2000 g/ha was 30%.

What about the pest or weed control at 4000 g/ha (Alopecurus myosuroides; [2]) of the same compound?
The pest or weed control at 4000 g/ha was 25%.

And the pest or weed control at 8000 g/ha (Alopecurus myosuroides; pre-emergence, preemergence)?
Its pest or weed control at 8000 g/ha is 25%.

With CCc1cccc(CC)c1N(COC)C(=O)CCl as the compound, how does the pest or weed control at 4000 g/ha (Galium aparine) read?
The pest or weed control at 4000 g/ha was 0%.

What about the pest or weed control at 1000 g/ha (Sinapis alba; post-emergence, postemergence) of the same compound?
Its pest or weed control at 1000 g/ha is 0%.

And the pest or weed control at 2000 g/ha (Sinapis alba; post-emergence, postemergence)?
Its pest or weed control at 2000 g/ha is 0%.

What about the pest or weed control at 1000 g/ha (Sinapis alba; pre-emergence, preemergence) of the same compound?
The pest or weed control at 1000 g/ha was 0%.

And the pest or weed control at 2000 g/ha (Sinapis alba; pre-emergence, preemergence)?
The pest or weed control at 2000 g/ha was 0%.

What about the pest or weed control at 1000 g/ha (Alopecurus myosuroides; post-emergence, postemergence) of the same compound?
The pest or weed control at 1000 g/ha was 40%.

And the pest or weed control at 2000 g/ha (Alopecurus myosuroides; post-emergence, postemergence)?
The pest or weed control at 2000 g/ha was 50%.

What about the pest or weed control at 1000 g/ha (Alopecurus myosuroides; pre-emergence, preemergence) of the same compound?
Its pest or weed control at 1000 g/ha is 20%.

And the pest or weed control at 2000 g/ha (Alopecurus myosuroides; pre-emergence, preemergence)?
Its pest or weed control at 2000 g/ha is 78%.

And the percentage damage (Echinochloa crus galli; postemergence, 1.0 kg/ha)?
The percentage damage was 98 percentage damage.

And the percentage damage (Echinochloa crus galli; postemergence, 2.0 kg/ha)?
The percentage damage was 98 percentage damage.

And the percentage damage (Echinochloa crus galli; preemergence, 1.0 kg/ha)?
Its percentage damage is 100 percentage damage.

What about the percentage damage (Echinochloa crus galli; preemergence, 2.0 kg/ha) of the same compound?
Its percentage damage is 100 percentage damage.
